Results on two compounds are retold here after patent US20220288046A1, “COMBINATION PRODUCT CONTAINING LIMONOID COMPOUND AND THIAZOLIDINEDIONE COMPOUND” (ZHEJIANG YANGSHENGTANG INSTITUTE OF NATURAL MEDICATION CO., …, priority 2019, published 2022).

Common to all, as to type: in vivo
Experiment [1] deals with STZ mice. Description: Blood glucose in mouse pancreatic islet β-cell injury model (STZ ICR mice), limonoid/rosiglitazone. The note with it: single agent 0.02 g/kg per day gavage, two weeks, 1 h after last administration, mean ± SD. On the procedure: It should be noted that the conditions for raising the mice were as follows: the temperature was 23±1° C., the humidity was 55±10%, the lights were turned on between 7 am and 7 pm (the lights were turned off at other time), and the mice were allowed to freely take in water and feed. The experimental feed was mouse growth-stable feed (GB M2118), and the daily feeding and management of the animals were under the responsibility of the animal security department, which provided the animals with sufficient diet and fresh drinking water daily.
SPSS 16.0 software was used for statistical analysis. The data were expressed as mean and standard deviation.

For experiment [2], the system named is db/db mice. In words: Blood glucose in mouse type II diabetes model (db/db mice), limonoid/rosiglitazone. Particulars: single agent 0.2 g/kg per day gavage, two weeks, 1 h after last administration, mean ± SD. The source says:
(§1) Effects of limonoid compound, rosiglitazone or combination thereof on blood glucose and insulin in mouse type II diabetes model
(§2) In the present embodiment, the limonoid compound was selected from nomilin, deacetylnomilin, nomilin acid, deacetylnomilin acid glycoside, and rosiglitazone single administration group, nomilin single administration group, deacetylnomilin single administration group, nomilin acid single administered group, deacetylnomilin acid glycoside single administration group, and respective combination thereof with rosiglitazone administration groups were set.
(§3) Conditions for experimental feeding: as type II diabetes model mice, 6-week-old SPF-grade db/db mice were purchased from the Nanjing Model Biology Institute, and subjected to experimental feeding after 7 days of preliminary feeding. […]
(§4) Two weeks later, the blood glucose values were measured by tail trimming method (Johnson's blood glucose meter) 1 h after the last administration, and serum insulin levels were measured with blood collected from orbital cavity by enzyme-linked immunosorbent assay (Elisa), and the average of each group was obtained. […] The data were expressed as mean and standard deviation.

The test system of experiment [3] is db/db mice. Description: Serum insulin (Elisa) in mouse type II diabetes model (db/db mice), limonoid/rosiglitazone. The note with it: single agent 0.2 g/kg per day gavage, two weeks, mean ± SD.
Source text: as §1, §2, §3, §4

The subject of experiment [4] is STZ mice. In words: Blood glucose in mouse type II diabetes model with pancreatic islet damage and obesity (STZ + high-fat diet ICR mice), limonoid/pioglitazone. Particulars: single agent 0.5 g/kg per day gavage, two weeks, 1 h after last administration, mean ± SD. An excerpt:
Effects of limonoid compound, pioglitazone or combination thereof on blood glucose in mouse type II diabetes model with pancreatic islet damage and obesity In this example, a mouse model of type II diabetes with pancreatic islet damage and obesity was established by multiple modeling ICR mice with a small dose of streptozotocin (STZ), following with continuous high-fat diets (referring to literature: […] Conditions of experimental feeding: […] The experimental feed was mouse growth-stable feed (GB […]), and the daily feeding and management of the animals were under the responsibility of the animal security department, which provided the animals with sufficient diet and fresh drinking water daily. Experimental grouping: 15 male mice were randomly selected as the normal control group, and the remaining mice were subjected to a high-fat diet (high-fat diet formula: cholesterol 1%, egg yolk powder 10%, lard oil 10%, and basic feed 79%, for establishing an obesity mouse model) for consecutive 4 weeks and intraperitoneal injection of STZ at a dose of 35mg/kg for three consecutive days. […] SPSS 16.0 software was used for statistical analysis. The data were expressed as mean and standard deviation. The data before and after were analyzed by t-test, and P <0.05 was considered statistically significant.

In experiment [5] the test system is STZ mice. In words: Blood glucose in mouse pancreatic islet β-cell injury model (STZ ICR mice), limonoid/pioglitazone. Particulars: single agent 0.1 g/kg per day gavage, two weeks, 1 h after last administration, mean ± SD. An excerpt: Effects of limonoid compound, pioglitazone or combination thereof on blood glucose in mouse pancreatic islet β-cell injury model In this example, a mouse pancreatic islet β-cell injury model was established by modeling ICR mice with streptozotocin (STZ) (Li Nan et al., Protective effect of pine pollen on kidney damage in diabetic nephropathy mice, Science and Technology Review, 2014, 32 (4⁄5): 95-99), and used to complete the evaluation of hypoglycemic effect in animals (this model could simulate pancreatic islet β-cell damage state of type I and type II diabetics). The limonoid compound was selected from the group consisting of […], and […] glycoside, and pioglitazone single administration group, […] single administration group, […] single administration group, […] glycoside singe administration group, and respective combination thereof with pioglitazone administration groups were set. Conditions of experimental feeding: […] The experimental feed was mouse growth-stable feed (GB […]), and the daily feeding and management of the animals were under the responsibility of the animal security department, which provided the animals with sufficient diet and fresh drinking water daily. […] The data were expressed as mean and standard deviation. The data before and after were analyzed by t-test, and P <0.05 was considered statistically significant.

Experiment [6] deals with db/db mice. In words: Blood glucose in mouse type II diabetes model (db/db mice), limonoid/pioglitazone. Particulars: single agent 0.04 g/kg per day gavage, two weeks, 1 h after last administration, mean ± SD. An excerpt:
(§5) Effects of limonoid compound, pioglitazone or combination thereof on blood glucose and leptin in mouse type II diabetes model In the present example, db/db mice (line name BKS.Cg-Dock7m^+/+Lepr^db/Nju) were used to perform hypoglycemic efficacy evaluation test of animals (blood glucose level and leptin). The limonoid compound was selected from obacunone, isoobacunoic acid and obacunone glycoside, and pioglitazone single administration group, obacunone single administration group, isoobacunoic acid single administration group, obacunone glycoside single administered group, and respective combination thereof with pioglitazone administration groups were set. Conditions for experimental feeding: as type II diabetes model mice, 6-week-old SPF-grade db/db mice were purchased from the Nanjing Model Biology Institute, and subjected to experimental feeding after 7 days of preliminary feeding. […] The experimental feed was mouse growth-stable feed (GB […]), and the daily feeding and management of the animals were under the responsibility of the animal security department, which provided the animals with sufficient diet and fresh drinking water daily. […] The data were expressed as mean and standard deviation. The data before and after were analyzed by t-test, and P <0.05 was considered statistically significant.

Experiment [7] deals with db/db mice. In words: Serum leptin (Elisa) in mouse type II diabetes model (db/db mice), limonoid/pioglitazone. The note with it: single agent 0.04 g/kg per day gavage, two weeks, mean ± SD.
Source text: as §5

As for `CN(CCOc1ccc(CC2SC(=O)NC2=O)cc1)c1ccccn1` (stereo not shown) [Rosiglitazone, rosiglitazone], the Blood glucose value was determined as 17.9 ± 3.5 mmol/L with STZ mice [1] and 10.0 ± 2.5 mmol/L with db/db mice [2]. Moreover, in the experiment with db/db mice [3], the Insulin was found to be 7.54 ± 1.21 pg/mL.

Take `CCc1ccc(CCOc2ccc(CC3SC(=O)NC3=O)cc2)nc1` (stereo not shown) [Pioglitazone, pioglitazone]: the Blood glucose value in the experiment on STZ mice [4] stood at 9.9 ± 2.1 mmol/L; with STZ mice [5], 12.8 ± 3.1 mmol/L; in the experiment on db/db mice [6], 11.5 ± 3.0 mmol/L. The Leptin in the experiment on db/db mice [7] worked out at 24.55 ± 5.14 pg/mL.
